{"source": "patent US10597388B2", "about": "“Pyridazinone herbicides” (FMC CORPORATION, priority 2014, dated 2020)", "assay_in_all_cases": "Test C greenhouse herbicide test, pre- and postemergence", "format_in_all_cases": "in vivo", "key": {"[1]": {"test_system": "barnyardgrass (Echinochloa crus-galli)", "outline": "(§1)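 Visual ratings on a 0 to 100 scale (0 = no effect, 100 = complete control) versus untreated controls, scored 13–15 d after treatment. Soil-applied preemergence to seeded loam/sand; foliar postemergence to 1- to 4-leaf plants (2–18 cm) in peat-vermiculite mix; compounds formulated in solvent plus surfactant.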"}, "[2]": {"test_system": "blackgrass (Alopecurus myosuroides)", "outline": "as §1"}, "[3]": {"test_system": "corn (Zea mays)", "outline": "as §1"}, "[4]": {"test_system": "crabgrass, large (large crabgrass, Digitaria sanguinalis)", "outline": "as §1"}, "[5]": {"test_system": "foxtail, giant (giant foxtail, Setaria faberii)", "outline": "as §1"}, "[6]": {"test_system": "galium (catchweed bedstraw, Galium aparine)", "outline": "as §1"}, "[7]": {"test_system": "johnsongrass (Sorghum halepense)", "outline": "as §1"}, "[8]": {"test_system": "nutsedge, yellow (yellow nutsedge, Cyperus esculentus)", "outline": "as §1"}, "[9]": {"test_system": "ryegrass, Italian (Italian ryegrass, Lolium multiflorum)", "outline": "as §1"}, "[10]": {"test_system": "soybean (Glycine max)", "outline": "as §1"}, "[11]": {"test_system": "velvetleaf (Abutilon theophrasti)", "outline": "as §1"}, "[12]": {"test_system": "wheat (winter wheat, Triticum aestivum)", "outline": "as §1"}, "[13]": {"settings": "Postemergence, 31 g ai/ha, scale 0 to 100 (0 no effect, 100 complete control)"}, "[14]": {"settings": "Postemergence, 125 g ai/ha, scale 0 to 100, 0 is no effect, 100 is complete control"}, "[15]": {"settings": "Postemergence, 250 g ai/ha, scale 0 to 100, 0 no effect, 100 complete control, 13 to 15 d"}, "[16]": {"settings": "Preemergence, 31 g ai/ha, scale 0 to 100, 0 is no effect, 100 is complete control"}, "[17]": {"settings": "Preemergence, 62 g ai/ha, scale 0 to 100, 0 is no effect, 100 is complete control"}, "[18]": {"settings": "Preemergence, 125 g ai/ha, scale 0 to 100, 0 is no effect, 100 is complete control"}, "[19]": {"settings": "Preemergence, 250 g ai/ha, scale 0 to 100, 0 no effect, 100 complete control"}, "[20]": {"settings": "postemergence, 62 g ai/ha, scale 0 to 100, 0 no effect, 100 complete control"}}, "data": [{"smiles": "CCCC(=O)Oc1c(C)nn(C)c(=O)c1-c1c(CC)sc2ccc(C)cc12", "note": "[Compound 107]", "values": [{"measurement": "Plant response rating, Barnyardgrass", "setting": "[1]; [13]", "value": 35}, {"measurement": "Plant response rating, Barnyardgrass", "setting": "[1]; [14]", "value": 40}, {"measurement": "Plant response rating, Barnyardgrass", "setting": "[1]; [15]", "value": 90}, {"measurement": "Plant response rating, Barnyardgrass", "setting": "[1]; [16]", "value": 15}, {"measurement": "Plant response rating, Barnyardgrass", "setting": "[1]; [17]", "value": 45}, {"measurement": "Plant response rating, Barnyardgrass", "setting": "[1]; [18]", "value": 80}, {"measurement": "Barnyardgrass plant response rating", "setting": "[1]; [19]", "value": 98}, {"measurement": "Barnyardgrass plant response rating", "setting": "[1]; [20]", "value": 50}, {"measurement": "Plant response rating, Blackgrass", "setting": "[2]; [13]", "value": 0}, {"measurement": "Plant response rating, Blackgrass", "setting": "[2]; [14]", "value": 5}, {"measurement": "Plant response rating, Blackgrass", "setting": "[2]; [15]", "value": 30}, {"measurement": "Plant response rating, Blackgrass", "setting": "[2]; [16]", "value": 0}, {"measurement": "Plant response rating, Blackgrass", "setting": "[2]; [17]", "value": 5}, {"measurement": "Plant response rating, Blackgrass", "setting": "[2]; [18]", "value": 10}, {"measurement": "Blackgrass plant response rating", "setting": "[2]; [19]", "value": 10}, {"measurement": "Blackgrass plant response rating", "setting": "[2]; [20]", "value": 5}, {"measurement": "Plant response rating, Corn", "setting": "[3]; [13]", "value": 5}, {"measurement": "Plant response rating, Corn", "setting": "[3]; [14]", "value": 20}, {"measurement": "Plant response rating, Corn", "setting": "[3]; [15]", "value": 15}, {"measurement": "Plant response rating, Corn", "setting": "[3]; [16]", "value": 0}, {"measurement": "Plant response rating, Corn", "setting": "[3]; [17]", "value": 0}, {"measurement": "Plant response rating, Corn", "setting": "[3]; [18]", "value": 10}, {"measurement": "Corn plant response rating", "setting": "[3]; [19]", "value": 15}, {"measurement": "Corn plant response rating", "setting": "[3]; [20]", "value": 10}, {"measurement": "Plant response rating, Crabgrass, Large", "setting": "[4]; [13]", "value": 15}, {"measurement": "Plant response rating, Crabgrass, Large", "setting": "[4]; [14]", "value": 35}, {"measurement": "Plant response rating, Crabgrass, Large", "setting": "[4]; [15]", "value": 65}, {"measurement": "Plant response rating, Crabgrass, Large", "setting": "[4]; [16]", "value": 30}, {"measurement": "Plant response rating, Crabgrass, Large", "setting": "[4]; [17]", "value": 30}, {"measurement": "Plant response rating, Crabgrass, Large", "setting": "[4]; [18]", "value": 75}, {"measurement": "Crabgrass, Large plant response rating", "setting": "[4]; [19]", "value": 85}, {"measurement": "Crabgrass, Large plant response rating", "setting": "[4]; [20]", "value": 20}, {"measurement": "Plant response rating, Foxtail, Giant", "setting": "[5]; [13]", "value": 15}, {"measurement": "Plant response rating, Foxtail, Giant", "setting": "[5]; [14]", "value": 70}, {"measurement": "Plant response rating, Foxtail, Giant", "setting": "[5]; [15]", "value": 75}, {"measurement": "Plant response rating, Foxtail, Giant", "setting": "[5]; [16]", "value": 60}, {"measurement": "Plant response rating, Foxtail, Giant", "setting": "[5]; [17]", "value": 80}, {"measurement": "Plant response rating, Foxtail, Giant", "setting": "[5]; [18]", "value": 85}, {"measurement": "Foxtail, Giant plant response rating", "setting": "[5]; [19]", "value": 98}, {"measurement": "Plant response rating, Galium", "setting": "[6]; [13]", "value": 95}, {"measurement": "Plant response rating, Galium", "setting": "[6]; [14]", "value": 100}, {"measurement": "Plant response rating, Galium", "setting": "[6]; [15]", "value": 98}, {"measurement": "Plant response rating, Galium", "setting": "[6]; [16]", "value": 90}, {"measurement": "Plant response rating, Galium", "setting": "[6]; [17]", "value": 90}, {"measurement": "Plant response rating, Galium", "setting": "[6]; [18]", "value": 90}, {"measurement": "Galium plant response rating", "setting": "[6]; [19]", "value": 95}, {"measurement": "Plant response rating, Johnsongrass", "setting": "[7]; [13]", "value": 0}, {"measurement": "Plant response rating, Johnsongrass", "setting": "[7]; [14]", "value": 0}, {"measurement": "Plant response rating, Johnsongrass", "setting": "[7]; [15]", "value": 20}, {"measurement": "Plant response rating, Johnsongrass", "setting": "[7]; [16]", "value": 0}, {"measurement": "Plant response rating, Johnsongrass", "setting": "[7]; [17]", "value": 0}, {"measurement": "Plant response rating, Johnsongrass", "setting": "[7]; [18]", "value": 10}, {"measurement": "Johnsongrass plant response rating", "setting": "[7]; [19]", "value": 20}, {"measurement": "Plant response rating, Nutsedge, Yellow", "setting": "[8]; [13]", "value": 80}, {"measurement": "Plant response rating, Nutsedge, Yellow", "setting": "[8]; [14]", "value": 75}, {"measurement": "Plant response rating, Nutsedge, Yellow", "setting": "[8]; [15]", "value": 85}, {"measurement": "Plant response rating, Nutsedge, Yellow", "setting": "[8]; [16]", "value": 30}, {"measurement": "Plant response rating, Nutsedge, Yellow", "setting": "[8]; [17]", "value": 50}, {"measurement": "Plant response rating, Nutsedge, Yellow", "setting": "[8]; [18]", "value": 70}, {"measurement": "Nutsedge, Yellow plant response rating", "setting": "[8]; [19]", "value": 90}, {"measurement": "Plant response rating, Ryegrass, Italian", "setting": "[9]; [13]", "value": 40}, {"measurement": "Plant response rating, Ryegrass, Italian", "setting": "[9]; [14]", "value": 60}, {"measurement": "Plant response rating, Ryegrass, Italian", "setting": "[9]; [15]", "value": 90}, {"measurement": "Plant response rating, Ryegrass, Italian", "setting": "[9]; [16]", "value": 15}, {"measurement": "Plant response rating, Ryegrass, Italian", "setting": "[9]; [17]", "value": 35}, {"measurement": "Plant response rating, Ryegrass, Italian", "setting": "[9]; [18]", "value": 35}, {"measurement": "Ryegrass, Italian plant response rating", "setting": "[9]; [19]", "value": 30}, {"measurement": "Plant response rating, Soybean", "setting": "[10]; [13]", "value": 0}, {"measurement": "Plant response rating, Soybean", "setting": "[10]; [14]", "value": 20}, {"measurement": "Plant response rating, Soybean", "setting": "[10]; [15]", "value": 10}, {"measurement": "Plant response rating, Soybean", "setting": "[10]; [16]", "value": 75}, {"measurement": "Plant response rating, Soybean", "setting": "[10]; [17]", "value": 0}, {"measurement": "Plant response rating, Soybean", "setting": "[10]; [18]", "value": 0}, {"measurement": "Soybean plant response rating", "setting": "[10]; [19]", "value": 15}, {"measurement": "Plant response rating, Velvetleaf", "setting": "[11]; [13]", "value": 75}, {"measurement": "Plant response rating, Velvetleaf", "setting": "[11]; [14]", "value": 95}, {"measurement": "Plant response rating, Velvetleaf", "setting": "[11]; [15]", "value": 100}, {"measurement": "Plant response rating, Velvetleaf", "setting": "[11]; [16]", "value": 30}, {"measurement": "Plant response rating, Velvetleaf", "setting": "[11]; [17]", "value": 60}, {"measurement": "Plant response rating, Velvetleaf", "setting": "[11]; [18]", "value": 85}, {"measurement": "Velvetleaf plant response rating", "setting": "[11]; [19]", "value": 90}, {"measurement": "Plant response rating, Wheat", "setting": "[12]; [13]", "value": 0}, {"measurement": "Plant response rating, Wheat", "setting": "[12]; [14]", "value": 0}, {"measurement": "Plant response rating, Wheat", "setting": "[12]; [15]", "value": 0}, {"measurement": "Plant response rating, Wheat", "setting": "[12]; [16]", "value": 0}, {"measurement": "Plant response rating, Wheat", "setting": "[12]; [17]", "value": 0}, {"measurement": "Plant response rating, Wheat", "setting": "[12]; [18]", "value": 0}, {"measurement": "Wheat plant response rating", "setting": "[12]; [19]", "value": 5}]}]}
